This note sets out measurements from patent publication US20200069691A1, “HETEROCYCLIC COMPOUNDS AS HIV PROTEASE INHIBITORS” (Merck Sharp & Dohme Corp., priority 2016, published 2020).

This assay concerns the target T1, wild-type HIV-1 protease (Human immunodeficiency virus type 1 group M subtype B, UniProt P04585).
T1 construct: Escherichia coli expressed wild-type HIV-1 protease protein
The assay is described as follows: Assay for Inhibition of Microbial Expressed HIV Protease (peptide substrate cleavage, LC-MS/MS readout). The assay is classed as biochemical. Conditions: E. coli expressed wild-type HIV-1 protease, mean of at least two independent experiments, read-out: HIV Pr Enzyme HIV1 PR IC50. Here is the method: Assay for Inhibition of Microbial Expressed HIV Protease
Inhibition of Escherichia coli expressed wild-type HIV-1 protease protein was carried out with a peptide substrate [Val-Ser-Gln-Asn-(βnaphtyl)Ala-Pro-Ile-Val]. The inhibitor compound was preincubated with HIV-1 protease enzyme in assay buffer (50 mM sodium acetate, pH 5.5, 100 mM NaCl, and 0.1% BSA) for 30 minutes at room temperature. Peptide substrate was added to 400 μM in a total volume of 20 μL containing […] HIV-1 protease (final) after which the reaction was incubated for 1 hour at 30° C. […] The extent of inhibition of the reaction was determined from the peak area of the products.
Data shown in the table reflects the mean of at least two independent experiments.
Take `CC(C)CC(c1ccc(C(F)(F)F)c(C(=O)N2CCn3c(nnc3C(F)(F)F)C2)c1)N1C(=N)N[C@](C[C@@H]2CCOC2)(c2ccc(F)cc2)C1=O` (stereo partly drawn) [Compound 123, (5R)-5-(4-fluorophenyl)-2-imino-3-{3-methyl-1-[4-(trifluoromethyl)-3-{[3-(trifluoromethyl)-5,6-dihydro-[1,2,4]triazolo[4,3-a]pyrazin-7(8H)-yl]carbonyl}phenyl]butyl}-5-[(3R)-tetrahydrofuran-3-ylmethyl]-imidazolidin-4-one]: the half-inhibitory concentration (IC50) (usually the concentration that inhibits the measured activity by half) worked out at 55.7 nM. The same measure for `N#Cc1cccc(C2(c3ccc(F)cc3)NC(=N)N(Cc3cccc(C(=O)N4Cc5ccccc5C4)c3)C2=O)c1` (stereo not shown) [Compound 262, 3-{1-[3-(1,3-dihydro-2H-isoindol-2-ylcarbonyl)benzyl]-4-(4-fluorophenyl)-2-imino-5-oxoimidazolidin-4-yl}benzonitrile]: 24.4 nM; for `CCCn1cc(-c2ncc3c(n2)CN(C(=O)c2cc(CN4C(=N)N[C@](CCCC(F)(F)F)(c5ccc(F)cc5)C4=O)ccc2C(F)(F)F)C3)cn1` [Compound 18, (5R)-5-(4-fluorophenyl)-2-imino-3-[3-{[2-(1-propyl-1H-pyrazol-4-yl)-5,7-dihydro-6H-pyrrolo[3,4-d]pyrimidin-6-yl]carbonyl}-4-(trifluoromethyl)benzyl]-5-(4,4,4-trifluorobutyl)imidazolidin-4-one]: 2 nM. On to `CN(C)C(=O)N1CCN(C(=O)c2cc(F)cc(CN3C(=N)NC(c4ccccc4)(c4ccccc4)C3=O)c2)CC1` [Compound 309, 4-({3-fluoro-5-[(2-imino-5-oxo-4,4-diphenylimidazolidin-1-yl)methyl]phenyl}carbonyl)-N,N-dimethylpiperazine-1-carboxamide], for which the half-maximal inhibitory concentration (IC50) was determined as 122 nM.

Take `N#Cc1ncc2c(n1)CN(C(=O)c1cccc(CN3C(=N)NC(c4ccccc4)(c4ccccc4)C3=O)c1)C2` [Compound 199, 6-({3-[(2-imino-5-oxo-4,4-diphenylimidazolidin-1-yl)methyl]phenyl}carbonyl)-6,7-dihydro-5H-pyrrolo[3,4-d]pyrimidine-2-carbonitrile]: the IC50 stood at 5.59 nM. The figure for `CC(C)CC1(c2ccccc2)NC(=N)N(Cc2cccc(C(=O)N3Cc4cnc(C#N)nc4C3)c2)C1=O` (stereo not shown) [Compound 222, 6-[(3-{[2-imino-4-(2-methylpropyl)-5-oxo-4-phenylimidazolidin-1-yl]methyl}phenyl)carbonyl]-6,7-dihydro-5H-pyrrolo[3,4-d]pyrimidine-2-carbonitrile] is 11.1 nM; for `N=C1N[C@](CCC2CC2)(c2ccc(F)cc2)C(=O)N1C(CCc1ccccc1)c1ccc(C(F)(F)F)c(C(=O)N2Cc3nccnc3C2)c1` (stereo partly drawn) [Compound 3, (5R)-5-(2-cyclopropylethyl)-3-{1-[3-(5,7-dihydro-6H-pyrrolo[3,4-b]pyrazin-6-ylcarbonyl)-4-(trifluoromethyl)phenyl]-3-phenylpropyl}-5-(4-fluorophenyl)-2-iminoimidazolidin-4-one] it is 0.17 nM; for `C[C@@H](c1cccc(C(=O)N2Cc3ccccc3C2)c1)N1C(=N)NC(c2ccccc2)(c2ccccc2)C1=O` [Compound 331, 3-{(1S)-1-[3-(1,3-dihydro-2H-isoindol-2-ylcarbonyl)phenyl]ethyl}-2-imino-5,5-diphenylimidazolidin-4-one] it is 67.6 nM.

Consider `N=C1NC(c2ccccc2)(c2ccccc2)C(=O)N1Cc1cccc(C(=O)N2Cc3cnc(C(F)(F)F)nc3C2)c1` [Compound 242, 2-imino-5,5-diphenyl-3-(3-{[2-(trifluoromethyl)-5,7-dihydro-6H-pyrrolo[3,4-d]pyrimidin-6-yl]carbonyl}benzyl) imidazolidin-4-one], for which the half-maximal inhibitory concentration (IC50) came to 16.6 nM. The figure for `N=C1NC(c2ccccc2)(c2ccccc2)C(=O)N1Cc1cccc(C(=O)N2CCc3c(Cl)cccc3C2)c1` [Compound 281, 3-{3-[(5-chloro-3,4-dihydroisoquinolin-2(1H)-yl)carbonyl]benzyl}-2-imino-5,5-diphenylimidazolidin-4-one] is 31.1 nM; for `N=C1NC(c2ccccc2)(c2ccccc2)C(=O)N1Cc1cc(C(=O)N2Cc3nccnc3C2)ccn1` [Compound 399, 3-{[4-(5,7-dihydro-6H-pyrrolo[3,4-b]pyrazin-6-ylcarbonyl)pyridin-2-yl]methyl}-2-imino-5,5-diphenylimidazolidin-4-one] it is 20.4 nM; for `N=C1NC(c2ccc(F)cc2)(c2ccc(F)cc2)C(=O)N1Cc1cccc(C(=O)N2Cc3cncnc3C2)c1` [Compound 215, 3-[3-(5,7-dihydro-6H-pyrrolo[3,4-d]pyrimidin-6-ylcarbonyl)benzyl]-5,5-bis(4-fluorophenyl)-2-iminoimidazolidin-4-one] it is 23 nM.

As for `CC(C)NC(=O)N1CCN(C(=O)c2cc(F)cc(CN3C(=N)NC(c4ccccc4)(c4ccccc4)C3=O)c2)CC1` [Compound 293, 4-({3-fluoro-5-[(2-imino-5-oxo-4,4-diphenylimidazolidin-1-yl)methyl]phenyl}carbonyl)-N-(1-methylethyl) piperazine-1-carboxamide], the IC50 turned out to be 39.2 nM. On to `N=C1N[C@](CCC2CC2)(c2ccc(F)cc2)C(=O)N1C(CCc1ccccc1)c1ccc(C(F)(F)F)c(C(=O)N2CCn3c(nnc3C(F)(F)F)C2)c1` (stereo partly drawn) [Compound 37, (5R)-5-(2-cyclopropylethyl)-5-(4-fluorophenyl)-2-imino-3-{3-phenyl-1-[4-(trifluoromethyl)-3-{[3-(trifluoromethyl)-5,6-dihydro-[1,2,4]triazolo[4,3-a]pyrazin-7(8H)-yl]carbonyl}phenyl]propyl} imidazolidin-4-one], for which the IC50 turned out to be 3.89 nM. In the case of `N=C1NC(c2ccccc2)(c2ccccc2)C(=O)N1Cc1cccc(C(=O)N2Cc3cccc(F)c3C2)c1` [Compound 194, 3-{3-[(4-fluoro-1,3-dihydro-2H-isoindol-2-yl)carbonyl]benzyl}-2-imino-5,5-diphenylimidazolidin-4-one], the IC50 was found to be 35.7 nM. The same measure for `C[C@H](c1cccc(C(=O)N2Cc3ccccc3C2)c1)N1C(=N)NC(c2ccccc2)(c2ccccc2)C1=O` [Compound 187, 3-{(1R)-1-[3-(1,3-dihydro-2H-isoindol-2-ylcarbonyl)phenyl]ethyl}-2-imino-5,5-diphenylimidazolidin-4-one]: 3.67 nM; for `CC(C)CC1(c2ccccc2)NC(=N)N(Cc2ccc(C(F)(F)F)c(C(=O)N3Cc4cnc(C#N)nc4C3)c2)C1=O` (stereo not shown) [Compound 140, 6-{[5-{[2-imino-4-(2-methylpropyl)-5-oxo-4-phenylimidazolidin-1-yl]methyl}-2-(trifluoromethyl)phenyl]carbonyl}-6,7-dihydro-5H-pyrrolo[3,4-d]pyrimidine-2-carbonitrile]: 2.93 nM; for `N=C1NC(c2ccccc2)(c2ccccc2)C(=O)N1Cc1cc(F)cc(C(=O)N2CCn3c(nnc3C(F)(F)F)C2)c1` [Compound 341]: 77.5 nM. The same measure for `CC(C)CC[C@]1(c2ccccc2)NC(=N)N([C@@H]2CCCc3ccc(C(=O)N4Cc5nccnc5C4)cc32)C1=O` [Compound 124, (5R)-3-[(1R)-7-(5,7-dihydro-6H-pyrrolo[3,4-b]pyrazin-6-ylcarbonyl)-1,2,3,4-tetrahydro-naphthalen-1-yl]-2-imino-5-(3-methylbutyl)-5-phenylimidazolidin-4-one]: 57 nM; for `N=C1N[C@](CCC2CC2)(c2ccc(F)cc2)C(=O)N1C(CN1CCCC1=O)c1ccc(C(F)(F)F)c(C(=O)N2Cc3nccnc3C2)c1` (stereo partly drawn) [Compound 7, (5R)-5-(2-cyclopropylethyl)-3-{1-[3-(5,7-dihydro-6H-pyrrolo[3,4-b]pyrazin-6-ylcarbonyl)-4-(trifluoromethyl)phenyl]-2-(2-oxopyrrolidin-1-yl)ethyl}-5-(4-fluorophenyl)-2-iminoimidazolidin-4-one]: 0.39 nM; for `N=C1NC(c2ccccc2)(c2ccccc2)C(=O)N1Cc1cccc(C(=O)N2CCN(c3ccc(F)cc3)CC2)c1` [Compound 359, 3-(3-{[4-(4-fluorophenyl)piperazin-1-yl]carbonyl}benzyl)-2-imino-5,5-diphenylimidazolidin-4-one]: 93.9 nM.

Consider `CC(C)CC[C@]1(c2ccc(F)cc2)NC(=N)N(C(COC(C)C)c2ccc(C(F)(F)F)c(C(=O)N3Cc4nccnc4C3)c2)C1=O` (stereo partly drawn) [Compound 8, (5R)-3-{1-[3-(5,7-dihydro-6H-pyrrolo[3,4-b]pyrazin-6-ylcarbonyl)-4-(trifluoromethyl)phenyl]-2-(1-methylethoxy)ethyl}-5-(4-fluorophenyl)-2-imino-5-(3-methylbutyl)imidazolidin-4-one], for which the 50% inhibitory concentration (IC50) was determined as 0.52 nM.

Consider `N=C1NC(c2ccc(F)cc2)(c2ccc(F)cc2)C(=O)N1Cc1cccc(C(=O)N2Cc3cccc(F)c3C2)c1` [Compound 196, 3-{3-[(4-fluoro-1,3-dihydro-2H-isoindol-2-yl)carbonyl]benzyl}-5,5-bis (4-fluorophenyl)-2-iminoimidazolidin-4-one], for which the IC50 came to 31.6 nM.

Regarding `N=C1NC(c2ccccc2)(c2ccccc2)C(=O)N1Cc1ccc(Cl)c(C(=O)N2Cc3nccnc3C2)c1` [Compound 362, 3-[4-chloro-3-(5,7-dihydro-6H-pyrrolo[3,4-b]pyrazin-6-ylcarbonyl)benzyl]-2-imino-5,5-diphenylimidazolidin-4-one], the IC50 came out at 1.34 nM. As for `Cc1cc2c(cn1)CN(C(=O)c1cccc(CN3C(=N)NC(c4ccccc4)(c4ccccc4)C3=O)c1)C2` [Compound 214, 2-imino-3-{3-[(6-methyl-1,3-dihydro-2H-pyrrolo[3,4-c]pyridin-2-yl)carbonyl]benzyl}-5,5-diphenylimidazolidin-4-one], the IC50 was found to be 9.81 nM.
